# Experimental data taken from US7709471B2, “Compounds” (AstraZeneca AB, priority 2006, dated 2010).
# What was measured:
# [1] = system: human colon tumour cell line HT29; test: Cellular Assay (phosphohistone H3 Ser10 mitotic marker, HT29); type: cell-based; details: HT-29, 24 h, HT29 cells, read-out: IC50 (cellular assay, phosphohistone H3)
# Procedure: Chromosome condensation in mitosis is accompanied by phosphorylation of histone H3 on serine 10.
# After 24 hours, cells were fixed in 3.7% (v/v) formaldehyde then permeabilised and blocked for 10 minutes in 100 μl 0.5% (v/v) Triton X-100, 1% (w/v) bovine serum albumin (BSA) in phosphate buffered saline (PBS). […] The raw assay data were analysed by non-linear regression analysis and used to determine an IC50 value for each compound.
# recombinant Plk1 = recombinant Plk1 (Homo sapiens, UniProt P53350); test: In Vitro Plk1 Enzyme Assay (SPA, GST-Cdc25C phosphorylation); type: biochemical; details: ATP 64 nM, 90 minutes, read-out: IC50 (Plk1 enzyme inhibition)
# Sequence of recombinant Plk1 (P53350 whole entry): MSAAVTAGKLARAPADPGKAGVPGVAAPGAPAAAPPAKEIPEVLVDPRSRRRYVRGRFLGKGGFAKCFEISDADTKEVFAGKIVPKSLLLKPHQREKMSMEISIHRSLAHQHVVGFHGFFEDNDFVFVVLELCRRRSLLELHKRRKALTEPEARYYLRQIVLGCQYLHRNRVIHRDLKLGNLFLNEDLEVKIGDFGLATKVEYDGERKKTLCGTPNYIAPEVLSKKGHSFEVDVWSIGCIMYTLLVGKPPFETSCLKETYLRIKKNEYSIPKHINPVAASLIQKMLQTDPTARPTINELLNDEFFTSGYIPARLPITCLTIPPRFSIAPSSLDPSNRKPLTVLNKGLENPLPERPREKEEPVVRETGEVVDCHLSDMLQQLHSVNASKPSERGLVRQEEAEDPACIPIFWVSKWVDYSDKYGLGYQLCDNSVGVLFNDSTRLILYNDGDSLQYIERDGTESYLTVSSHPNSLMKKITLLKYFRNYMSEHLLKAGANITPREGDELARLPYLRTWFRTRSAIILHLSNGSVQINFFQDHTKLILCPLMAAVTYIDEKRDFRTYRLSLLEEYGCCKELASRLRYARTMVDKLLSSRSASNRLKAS
structure (smiles),measurement,setting,value
"COCCNS(=O)(=O)c1ccc(Nc2ncc3c(n2)N(C2CCCC2)CCC(=O)N3C)cc1 [Example 125, 4-[(6-cyclopentyl-2-methyl-3-oxo-2,6,8,10-tetrazabicyclo[5.4.0]undeca-8,10,12-trien-9-yl)amino]-N-(2-methoxyethyl)benzenesulfonamide]",IC50,[1],< 30 µM
same,IC50,recombinant Plk1,< 100 µM
"CC(=O)N1CCN(c2ccc(Nc3ncc4c(n3)N(C3CCCC3)CCC(=O)N4C)cc2)CC1 [Example 128, 9-[[4-(4-acetylpiperazin-1-yl)phenyl]amino]-6-cyclopentyl-2-methyl-2,6,8,10-tetrazabicyclo[5.4.0]undeca-8,10,12-trien-3-one]",IC50,[1],< 30 µM
same,IC50,recombinant Plk1,< 1 µM
"CN1C(=O)CCN(C2CCCC2)c2nc(Nc3ccc(Cl)c(CO)c3)ncc21 [Example 131, 9-[[4-chloro-3-(hydroxymethyl)phenyl]amino]-6-cyclopentyl-2-methyl-2,6,8,10-tetrazabicyclo[5.4.0]undeca-8,10,12-trien-3-one]",IC50,[1],< 30 µM
same,IC50,recombinant Plk1,< 1 µM
"CN1C(=O)CCN(C2CCCC2)c2nc(Nc3ccc4[nH]c(-c5cccnc5)nc4c3)ncc21 [Example 132, 6-cyclopentyl-2-methyl-9-[(2-pyridin-3-yl-1H-benzoimidazol-5-yl)amino]-2,6,8,10-tetrazabicyclo[5.4.0]undeca-8,10,12-trien-3-one]",IC50,[1],< 30 µM
same,IC50,recombinant Plk1,< 1 µM
"CN1C(=O)CCN(C2CCCC2)c2nc(Nc3ccc(CNC(=O)c4ccccn4)cc3)ncc21 [Example 133, N-[[4-[(6-cyclopentyl-2-methyl-3-oxo-2,6,8,10-tetrazabicyclo[5.4.0]undeca-8,10,12-trien-9-yl)amino]phenyl]methyl]pyridine-2-carboxamide]",IC50,[1],< 30 µM
same,IC50,recombinant Plk1,< 100 µM
"CN1C(=O)CCN(C2CCCC2)c2nc(Nc3ccc(OCCN4CCOCC4)cc3)ncc21 [Example 135, 6-cyclopentyl-2-methyl-9-[[4-(2-morpholin-4-ylethoxy)phenyl]amino]-2,6,8,10-tetrazabicyclo[5.4.0]undeca-8,10,12-trien-3-one]",IC50,[1],< 1 µM
same,IC50,recombinant Plk1,< 100 µM
"COc1ccc(CCNC(C)=O)cc1Nc1ncc2c(n1)N(C1CCCC1)CCC(=O)N2C [Example 138, N-[2-[3-[(6-cyclopentyl-2-methyl-3-oxo-2,6,8,10-tetrazabicyclo[5.4.0]undeca-8,10,12-trien-9-yl)amino]-4-methoxy-phenyl]ethyl]acetamide]",IC50,[1],< 30 µM
same,IC50,recombinant Plk1,< 1 µM
"CCc1ccccc1Nc1ncc2c(n1)N(C1CCCC1)CCC(=O)N2C [Example 143, 6-cyclopentyl-9-[(2-ethylphenyl)amino]-2-methyl-2,6,8,10-tetrazabicyclo[5.4.0]undeca-8,10,12-trien-3-one]",IC50,[1],< 30 µM
same,IC50,recombinant Plk1,< 1 µM
"Cc1ccc(Oc2ccccc2Nc2ncc3c(n2)N(C2CCCC2)CCC(=O)N3C)cc1 [Example 159, 6-cyclopentyl-2-methyl-9-[[2-(4-methylphenoxy)phenyl]amino]-2,6,8,10-tetrazabicyclo[5.4.0]undeca-8,10,12-trien-3-one]",IC50,[1],< 30 µM
same,IC50,recombinant Plk1,< 100 µM
"CC(=O)c1cccc(Nc2ncc3c(n2)N(C2CCCC2)CCC(=O)N3C)c1 [Example 165, 9-[(3-acetylphenyl)amino]-6-cyclopentyl-2-methyl-2,6,8,10-tetrazabicyclo[5.4.0]undeca-8,10,12-trien-3-one]",IC50,[1],< 30 µM
same,IC50,recombinant Plk1,< 1 µM
"CN1C(=O)CCN(C2CCCC2)c2nc(Nc3cccc(S(N)(=O)=O)c3)ncc21 [Example 170, 3-[(6-cyclopentyl-2-methyl-3-oxo-2,6,8,10-tetrazabicyclo[5.4.0]undeca-8,10,12-trien-9-yl)amino]benzenesulfonamide]",IC50,[1],< 30 µM
same,IC50,recombinant Plk1,< 0.3 µM
"CN1C(=O)CCN(C2CCCC2)c2nc(Nc3cccc(CO)c3)ncc21 [Example 173, 6-cyclopentyl-9-[[3-(hydroxymethyl)phenyl]amino]-2-methyl-2,6,8,10-tetrazabicyclo[5.4.0]undeca-8,10,12-trien-3-one]",IC50,[1],< 30 µM
same,IC50,recombinant Plk1,< 1 µM
